Measured values as given in US20240000826A1, “METHODS FOR THE TREATMENT OF CARDIOVASCULAR DISEASE WITH CYCLODEXTRINS” (Beren Therapeutics P.B.C., priority 2020, published 2024).

Key:
cholesterol crystals [1] = experiment: cholesterol crystal dissolution capacity (CCDC) assay of plasma from treated subject; type: in vivo; conditions: one human subject; single-ascending IV doses 500, 750, 1,000, 1,000 mg/kg every 4 weeks; plasma pre-dose, post-dose, 1 hour and 24 hours post-dose; FIG. 3A
Description: (§2) For each dose, whole blood was collected pre-dose, post-dose (line flush), 1 hour post-dose, and 24 hours post-dose. Plasma was separated from the whole blood and subjected to a cholesterol crystal dissolution capacity (CCDC) assay using techniques similar to those described in the literature. The CCDC assay measures the ability of a sample to dissolve cholesterol crystals.

cholesterol crystals [2] = experiment: CCDC of pre-dose blood plasma incubated ex vivo with 2-hydroxypropyl-beta-cyclodextrin; parameters: species or system human; conditions: pre-dose plasma treated ex vivo with 2-hydroxypropyl-beta-cyclodextrin; FIG. 3B
Description: as §2

24S-hydroxycholesterol = experiment: plasma level of 24S-hydroxycholesterol in treated subject; type: in vivo; conditions: one human subject; IV 500-1,000 mg/kg every 4 weeks as in Example 2; FIGS. 4A-4C
Description: (§1) The increased production of 24S-hydroxycholesterol and 27-hydroxycholesterol enhance cholesterol metabolism, by acting as endogenous ligands for LXR transcription factors responsible for an anti-inflammatory gene signature.

27-hydroxycholesterol = experiment: plasma level of 27-hydroxycholesterol in treated subject; type: in vivo; conditions: one human subject; IV 500-1,000 mg/kg every 4 weeks as in Example 2; FIGS. 4A-4C
Description: as §1

total cholesterol = total cholesterol level in treated subject; type: in vivo; conditions: one human subject; IV 500-1,000 mg/kg every 4 weeks as in Example 2; FIGS. 4A-4C
Description: as §1

ABCA1 = ABCA1 mRNA level in treated subject; type: in vivo; conditions: one human subject; IV 500-1,000 mg/kg every 4 weeks as in Example 2; FIGS. 5A-5D
ABCG1 = ABCG1 mRNA level in treated subject; type: in vivo; conditions: one human subject; IV 500-1,000 mg/kg every 4 weeks as in Example 2; FIGS. 5A-5D

Substance: 2-hydroxypropyl-beta-cyclodextrin
- capability of blood plasma to dissolve cholesterol crystals (CCDC) (cholesterol crystals [1]): increased capability of blood plasma to dissolve cholesterol crystals
- capacity of plasma to dissolve cholesterol crystals (cholesterol crystals [2]): increased capacity to dissolve cholesterol crystals
- plasma level of 24S-hydroxycholesterol (24S-hydroxycholesterol): increased plasma levels
- plasma level of 27-hydroxycholesterol (27-hydroxycholesterol): increased plasma levels
- total cholesterol levels (total cholesterol): remained stable
- ABCA1 mRNA levels (ABCA1): increased mRNA levels
- ABCG1 mRNA levels (ABCG1): increased mRNA levels
